Measured values: article PMC6001238, “Iterative Chemical Engineering of Vancomycin Leads to Novel Vancomycin Analogs With a High in Vitro Therapeutic Index” (Frontiers in Microbiology, 2018)
Converted amounts (≈) assume the structure as drawn.

Assays:
E. faecalis VSE 1 = assay: MIC, broth microdilution, vancomycin-sensitive E. faecalis (VSE 1); format: cell-based, Enterococcus faecalis; conditions: for MIC: Enterococcus faecalis VSE 1 (vancomycin-sensitive), read-out: MIC; for MIC-fold improvement vs. vancomycin: VSE 1, ratio of MIC of vancomycin and MIC of analogue
Method in brief: (§1)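 Inhibitory concentrations were read by the CLSI broth microdilution procedure, with water and sterile broth as controls. One experiment added vancomycin (10 μM final) together with each analogue or reference antibiotic.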

E. faecalis VRE 6 = assay: MIC, broth microdilution, vancomycin-resistant E. faecalis VRE 6 (VanA); format: cell-based, Enterococcus faecalis; conditions: for MIC: Enterococcus faecalis VRE 6 (vancomycin-resistant), read-out: MIC; for MIC-fold improvement vs. vancomycin: VRE 6, ratio of MIC of vancomycin and MIC of analogue
Method in brief: as §1

E. faecalis VRE 53 = assay: MIC, broth microdilution, vancomycin-resistant E. faecalis VRE 53 (VanA); format: cell-based, Enterococcus faecalis; conditions: for MIC: Enterococcus faecalis VRE 53 (vancomycin-resistant), read-out: MIC; for MIC-fold improvement vs. vancomycin: VRE 53, ratio of MIC of vancomycin and MIC of analogue
Method in brief: as §1

E. faecalis VRE 29 = assay: MIC, broth microdilution, vancomycin-resistant E. faecalis VRE 29 (VanA); format: cell-based, Enterococcus faecalis; conditions: for MIC: Enterococcus faecalis VRE 29 (vancomycin-resistant), read-out: MIC; for MIC-fold improvement vs. vancomycin: VRE 29, ratio of MIC of vancomycin and MIC of analogue
Method in brief: as §1

E. faecalis VRE 37 = assay: MIC, broth microdilution, vancomycin-resistant E. faecalis VRE 37 (VanA); format: cell-based, Enterococcus faecalis; conditions: for MIC: Enterococcus faecalis VRE 37 (vancomycin-resistant), read-out: MIC; for MIC-fold improvement vs. vancomycin: VRE 37, ratio of MIC of vancomycin and MIC of analogue
Method in brief: as §1

[1] = system: Murine leukemia (L1210) cells; assay: Cytostatic activity, L1210 cell proliferation; format: cell-based; conditions: mean ± SD of three experiments; highest concentration tested 250 µM; 2 days; read-out: Toxicity (IC50) L1210
Method in brief: (§2)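 Coulter counter cell counts after 37°C culture with compound; IC50 = concentration giving 50% growth inhibition vs negative control. Incubation: L1210 2 d, CEM 3 d, HeLa 4 d. Suspension density before mixing with an equal volume of dilution: 300,000–500,000 cells/mL.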

[2] = system: human T-lymphocyte (CEM) cells; assay: Cytostatic activity, CEM cell proliferation; format: cell-based; conditions: mean ± SD of three experiments; highest concentration tested 250 µM; 3 days; read-out: Toxicity (IC50) CEM
Method in brief: as §2

[3] = system: human cervix carcinoma (HeLa) cells; assay: Cytostatic activity, HeLa cell proliferation; format: cell-based; conditions: mean ± SD of three experiments; highest concentration tested 250 µM; 4 days; read-out: Toxicity (IC50) HeLa
Method in brief: as §2

[4] = system: L1210, CEM and HeLa cell lines; assay: Cytostatic activity, average or summary over L1210, CEM and HeLa; format: cell-based; conditions: average of L1210, CEM and HeLa; read-out: Toxicity (IC50) Average
Method in brief: as §2

[5] = system: S. aureus VSSA (ATCC 6538); assay: MIC, broth microdilution, vancomycin-sensitive S. aureus (VSSA/MSSA, ATCC 6538); format: cell-based, Staphylococcus aureus; conditions: for MIC: Staphylococcus aureus VSSA, read-out: MIC; for MIC-fold improvement vs. vancomycin: VSSA, ratio of MIC of vancomycin and MIC of analogue
Method in brief: as §1

S. aureus VISA/HIP5827 = assay: MIC, broth microdilution, vancomycin-intermediate S. aureus VISA HIP5827; format: cell-based, Staphylococcus aureus; conditions: for MIC: Staphylococcus aureus VISA/HIP5827, read-out: MIC; for MIC-fold improvement vs. vancomycin: VISA/HIP5827, ratio of MIC of vancomycin and MIC of analogue
Method in brief: as §1

S. aureus VRSA = assay: MIC, broth microdilution, vancomycin-resistant S. aureus (VRSA); format: cell-based, Staphylococcus aureus; conditions: for MIC: Staphylococcus aureus VRSA, read-out: MIC; for MIC-fold improvement vs. vancomycin: VRSA, ratio of MIC of vancomycin and MIC of analogue
Method in brief: as §1

MRSA KS2 = assay: MIC, broth microdilution, MRSA KS2; format: cell-based, Staphylococcus aureus; conditions: for MIC-fold improvement vs. vancomycin: MRSA KS2, ratio of MIC of vancomycin and MIC of analogue; for MIC: Staphylococcus aureus MRSA KS2, read-out: MIC
Method in brief: as §1

MRSA KS6 = assay: MIC, broth microdilution, MRSA KS6; format: cell-based, Staphylococcus aureus; conditions: for MIC-fold improvement vs. vancomycin: MRSA KS6, ratio of MIC of vancomycin and MIC of analogue; for MIC: Staphylococcus aureus MRSA KS6, read-out: MIC
Method in brief: as §1

MRSA KS89 = assay: MIC, broth microdilution, MRSA KS89; format: cell-based, Staphylococcus aureus; conditions: for MIC-fold improvement vs. vancomycin: MRSA KS8, ratio of MIC of vancomycin and MIC of analogue; for MIC: Staphylococcus aureus MRSA KS8, read-out: MIC
Method in brief: as §1

MRSA KS1 = assay: MIC, broth microdilution, MRSA KS1; format: cell-based, Staphylococcus aureus; conditions: for MIC-fold improvement vs. vancomycin: MRSA KS1, ratio of MIC of vancomycin and MIC of analogue; for MIC: Staphylococcus aureus MRSA KS1, read-out: MIC
Method in brief: as §1

MIC (E. faecalis VSE 1) | MIC-fold improvement vs. vancomycin (E. faecalis VSE 1) | MIC (E. faecalis VRE 6) | MIC-fold improvement vs. vancomycin (E. faecalis VRE 6) | MIC (E. faecalis VRE 53) | MIC-fold improvement vs. vancomycin (E. faecalis VRE 53) | MIC (E. faecalis VRE 29) | MIC-fold improvement vs. vancomycin (E. faecalis VRE 29) | MIC (E. faecalis VRE 37) | MIC-fold improvement vs. vancomycin (E. faecalis VRE 37) | MIC [5] | MIC-fold improvement vs. vancomycin [5] | MIC (S. aureus VISA/HIP5827) | MIC-fold improvement vs. vancomycin (S. aureus VISA/HIP5827) | MIC (S. aureus VRSA) | MIC-fold improvement vs. vancomycin (S. aureus VRSA) | Compound | IC50 [1] | IC50 [2] | IC50 [3] | IC50 [4] | also measured
0.39 µM (≈ 0.713 µg/mL) | 4 | 3.13 µM (≈ 5.72 µg/mL) | 64 | 25 µM (≈ 45.7 µg/mL) | 16 | 6.25 µM (≈ 11.4 µg/mL) | 64 | 6.25 µM (≈ 11.4 µg/mL) | 64 | 0.39 µM (≈ 0.713 µg/mL) | 2 | 0.78 µM (≈ 1.43 µg/mL) | 8 | 0.39 µM (≈ 0.713 µg/mL) | 256 | CNC(CC(C)C)C(=O)NC1C(=O)NC(CC(N)=O)C(=O)NC2C(=O)NC3C(=O)NC(C(=O)NC(C(=O)NCCCNC(=O)c4ccc5cc(NS(=O)(=O)c6ccc(C)cc6)ccc5c4)c4cc(O)cc(O)c4-c4cc3ccc4O)C(O)c3ccc(c(Cl)c3)Oc3cc2cc(c3OC2OC(CO)C(O)C(O)C2OC2CC(C)(N)C(O)C(C)O2)Oc2ccc(cc2Cl)C1O (centres unmarked) [Vanc-65] | > 250 µM | ≥ 250 µM | 54 ± 45 µM | 185 µM | MIC-fold improvement vs. vancomycin (MRSA KS2): 4; MIC (MRSA KS2): 0.20 µM (≈ 0.366 µg/mL); MIC-fold improvement vs. vancomycin (MRSA KS6): 2; MIC (MRSA KS6): 0.39 µM (≈ 0.713 µg/mL); MIC-fold improvement vs. vancomycin (MRSA KS89): 2; MIC (MRSA KS89): 0.39 µM (≈ 0.713 µg/mL); MIC-fold improvement vs. vancomycin (MRSA KS1): 1; MIC (MRSA KS1): 0.78 µM (≈ 1.43 µg/mL)
0.78 µM (≈ 1.27 µg/mL) | 2 | 12.5 µM (≈ 20.3 µg/mL) | 16 | 25 µM (≈ 40.7 µg/mL) | 16 | 25 µM (≈ 40.7 µg/mL) | 16 | 25 µM (≈ 40.7 µg/mL) | 16 | 0.78 µM (≈ 1.27 µg/mL) | 1 | 1.56 µM (≈ 2.54 µg/mL) | 4 | 6.25 µM (≈ 10.2 µg/mL) | 16 | CN[C@H](CC(C)C)C(=O)N[C@H]1C(=O)N[C@@H](CC(N)=O)C(=O)N[C@H]2C(=O)N[C@H]3C(=O)N[C@H](C(=O)N[C@H](C(=O)NCC(=O)Nc4ccc([N+](=O)[O-])cc4)c4cc(O)cc(O)c4-c4cc3ccc4O)[C@H](O)c3ccc(c(Cl)c3)Oc3cc2cc(c3O[C@@H]2O[C@H](CO)[C@@H](O)[C@H](O)[C@H]2O[C@H]2C[C@](C)(N)[C@H](O)[C@H](C)O2)Oc2ccc(cc2Cl)[C@H]1O [Vanc-67] | ≥ 250 µM | 165 ± 32 µM | 52 ± 19 µM | 156 µM | MIC-fold improvement vs. vancomycin (MRSA KS2): 2; MIC (MRSA KS2): 0.39 µM (≈ 0.634 µg/mL); MIC-fold improvement vs. vancomycin (MRSA KS6): 1; MIC (MRSA KS6): 0.78 µM (≈ 1.27 µg/mL); MIC-fold improvement vs. vancomycin (MRSA KS89): 1; MIC (MRSA KS89): 0.78 µM (≈ 1.27 µg/mL); MIC-fold improvement vs. vancomycin (MRSA KS1): 1; MIC (MRSA KS1): 0.78 µM (≈ 1.27 µg/mL)
